Results from ChEMBL document CHEMBL2010773, “Design and synthesis of a vialinin A analog with a potent inhibitory activity of TNF-α production and its transformation into a couple of bioprobes” (Bioorg Med Chem Lett, 2012).
The source made the active and inactive calls. No cut-off for these calls is given here.

Assays:
RBL-2H3 [1] = assay: Antiinflammatory activity in rat RBL2H3 cells assessed as inhibition of DNP-BSA-induced TNF-alpha production preincubated for 15 mins prior DNP-BSA challenge measured after 30 mins by ELISA; type: functional, cell-based
[2] = tested on: Radical scavenging activity; assay: Antioxidant activity assessed as DPPH radical scavenging activity after 30 mins by spectrophotometry; type: functional
RBL-2H3 [3] = assay: Antiinflammatory activity in rat RBL2H3 cells assessed as inhibition of DNP-BSA-induced TNF-alpha production at 1 nM preincubated for 15 mins prior DNP-BSA challenge measured after 30 mins by ELISA; type: functional, cell-based

Compound	IC50 (RBL-2H3 [1])	EC50 [2]	inhibition (RBL-2H3 [3])
Cc1c(C)c(-c2ccc(O)cc2)c(O)c(O)c1-c1ccc(O)cc1	0.02 nM	–	–
O=C(Cc1ccccc1)Oc1c(OC(=O)Cc2ccccc2)c(-c2ccc(O)cc2)c(O)c(O)c1-c1ccc(O)cc1 [VIALININ A]	0.09 nM	14000 nM	–
COc1ccc2c(COC(=O)CCCCCn3cc(COc4ccc(-c5c(C)c(C)c(-c6ccc(O)cc6)c(O)c5O)cc4)nn3)cc(=O)oc2c1	0.55 nM	–	–
COCOc1c(OCOC)c(-c2ccc(O)cc2)c(C)c(C)c1-c1ccc(O)cc1	0.32 nM	–	Active
Cc1c(C)c(-c2ccc(OCc3cn(CCCCCCNC(=O)CCCC[C@@H]4SC[C@@H]5NC(=O)N[C@@H]54)nn3)cc2)c(O)c(O)c1-c1ccc(O)cc1	8.15 nM	–	–
